Experimental data taken from patent US4920134A, “2-O-pyrimidinyl glycerol derivatives” (Takeda Chemical Industries, Ltd., priority 1987, dated 1990).

Experiments:
HL-60 cells = assay: Proliferation-inhibitory effect against human myelocytic leukemia HL-60 cells ([3H]thymidine incorporation); format: cell-based; settings: 20 h + 4 h with [3H]thymidine, 37° C.
Description: Proliferation-inhibitory effect (IC50) of compounds in Examples against human myelocytic leukemia HL-60 cells HL-60 cells (human leukemia cell line) were suspended in GIT medium (Wako Pure Chemicals) containing a test compound to a concentration of 2×10^5 cells/ml, and 0.2 ml of the suspension was transferred to each well of a microwell plate having 96 wells. […] To determine the amount of thymidine incorporated into the cells, an acid-insoluble fraction was collected by a glass filter, and the radioactivity was measured by a liquid scintillation counter. The concentration of the drug which was required for 50% reduction of incorporated radioactivity from that of the control group without medication was taken as the IC50 value of the compound.

Sarcoma 180 cells = assay: Antitumor activity in ICR mice inoculated with Sarcoma 180 cells; format: in vivo; settings: Sarcoma 180, ICR mice, i.p., 0.33 mg/mouse; for life-span prolongation ratio T/C: 3 times (1 hour, 1 day, 2 days after inoculation), calculated only on survival days of died mice; for No. of survivors/No. of tested animals: 3 times, on the 60th day
Description: (§1) Antitumor activity of compounds in Examples
ICR mice were intraperitoneally inoculated with 1×10^5 Sarcoma 180 cells per mouse, and then intraperitoneally given 0.33 mg/mouse of a compound of Examples dissolved in physiological saline, three times in total, i.e. 1 hour, 1 day and 2 days after the inoculation. The life-span prolongation ratio* (T/C %) against the control group without medication and the number of surviving mice on the 60th day are shown in Table 2.
*Calculated only on the survival days of died mice.

[1] = tested on: murine breast cancer MM46 cells; assay: Antitumor activity in C3H mice inoculated with murine breast cancer MM46 cells; format: in vivo, C3 H mice; settings: i.p., 0.25 mg/mouse per administration; for life-span prolongation ratio T/C: once a day for 4 days from 2nd day, calculated only on survived days of died mice; for No. of survivors/No. of tested animals: once a day for 4 days, on the 60th day
Source text: as §1
C3 H mice were intraperitoneally inoculated with 1×10^4 murine breast cancer MM46 cells, and then intraperitoneally given a compound of Examples dissolved in physiological saline once a day for 4 days from the 2nd day after the inoculation. The life-span prolongation ratio* (T/C %) against the control group without medication and the number of surviving mice on the 60th day are shown in Table 3.
*Calculated only on the survived days of died mice

P388 cells = assay: Antitumor activity in CDF1 mice inoculated with P388 cells; format: in vivo; settings: i.p., 0.5 mg/mouse, twice (1 hour and 5 days after inoculation)
Description: CDF1 mice (5 heads per group) were intraperitoneally inoculated with 1×10^6 P388 cells per mouse, and then intraperitoneally given 0.5 mg/mouse of the compound in Example 2 dissolved in physiological saline, twice in total, i.e. 1 hour and 5 days after the inoculation. The life-span prolongation ratio (T/C %) against the control group without medication was 151%.

| SMILES | IC50 (HL-60 cells) | life-span prolongation ratio T/C [1] | No. of survivors/No. of tested animals [1] | other results |
| --- | --- | --- | --- | --- |
| CCCCCCCCCCCCCCCCCCOCC(COCCOCC[N+](C)(C)C)Oc1ncccn1.[Cl-] (stereo not shown) [Example 1, N-2-[2-[3-Octadecyloxy-2-(pyrimidin-2-yloxy)propoxy]ethoxy]ethyl-N,N,N-trimethylammonium chloride] | 0.63 µg/mL | 160% | 4/5 | life-span prolongation ratio T/C (Sarcoma 180 cells): 200%; No. of survivors/No. of tested animals (Sarcoma 180 cells): 0/5 |
| CCCCCCCCCCCCCCCCCCOCC(COCCOCC[N+](C)(C)C)Oc1ccc(Cl)nn1 (stereo not shown) [Example 2, N-[2-[2-[2-(3-Chloropyridazine-6-yloxy)-3-octadecyloxy]propoxy]ethoxy]ethyl-N,N,N-trimethylammonium chloride] | 1.25 µg/mL | 174% | 1/5 | life-span prolongation ratio (T/C %) (P388 cells): 151% |
| CCCCCCCCCCCCCCCCCCOCC(COCCOCC[N+](C)(C)C)Oc1cccnn1.[Cl-] (stereo not shown) [Example 3, N-[2-[2-[3-Octadecyloxy-2-(pyridazin-3-yloxy)propoxy]ethoxy]ethyl]-N,N,N-trimethylammonium chloride] | 0.32 µg/mL |  |  | life-span prolongation ratio T/C (Sarcoma 180 cells): 269%; No. of survivors/No. of tested animals (Sarcoma 180 cells): 0/5 |
| CCCCCCCCCCCCCCCCCCOCC(COCCOCC[n+]1ccsc1)Oc1ncccn1.[Cl-] (stereo not shown) [Example 4, 3-[2-[2-[3-Octadecyloxy-2-(pyrimidin-2-yloxy)propoxy]ethoxy]ethyl]thiazolium chloride] | 2.5 µg/mL |  |  | life-span prolongation ratio T/C (Sarcoma 180 cells): 244%; No. of survivors/No. of tested animals (Sarcoma 180 cells): 0/4 |
| CCCCCCCCCCCCCCCCCCOCC(COCCOCC[n+]1cccc(C(N)=O)c1)Oc1ncccn1.[Cl-] (stereo not shown) [Example 5, 3-Carbamoyl-1-[2-[2-[3-octadecyloxy-2-(pyrimidin-2-yloxy)propoxy]ethoxy]ethyl]pyridinium chloride] | 0.63 µg/mL |  |  |  |
| CCCCCCCCCCCCCCCCCCOCC(COCCOCC[n+]1cccc(C(=O)[O-])c1)Oc1ncccn1 (stereo not shown) [Example 6, 1-[2-[2-[3-Octadecyloxy-2-(pyrimidin-2-yloxy)propoxy]ethoxy]ethyl]pyridinio-3-carboxylate] |  | 121% | 4/5 |  |
| CCCCCCCCCCCCCCCCCCOCC(COCCOCC[n+]1ccc(C(C)(C)C)cc1)Oc1ncccn1 (stereo not shown) [Example 8, 4-t.-Butyl-1-[2-[2-[3-octadecyloxy-2-(pyrimidin-2-yloxy)propoxy]ethoxy]ethyl]pyridinium chloride] | 1.25 µg/mL |  |  |  |
| CCCCCCCCCCCCCCCCCCOCC(COCCOCC[n+]1cccc(O)c1)Oc1ncccn1.[Cl-] (stereo not shown) [Example 9, 3-Hydroxy-1-[2-[2-[3-octadecyloxy-2-(pyrimidin-2-yloxy)propoxy]ethoxy]ethyl]pyridinium chloride] |  | 132% | 1/3 |  |
| CCCCCCCCCCCCCCCCCCOCC(COCCOCC[n+]1ccn(C)c1)Oc1ncccn1.[Cl-] (stereo not shown) [Example 10, 1-Methyl-3-[2-[2-[3-octadecyloxy-2-(pyrimidin-2-yloxy)propoxy]ethoxy]ethyl]imidazolium chloride] | 0.63 µg/mL |  |  |  |
| CCCCCCCCCCCCCCCCCCOCC(COCCOCC[N+](C)(C)C)Oc1ccncn1.[Cl-] (stereo not shown) [Example 11, N-2-[2-[3-Octadecyloxy-2-(pyrimidin-4-yloxy)propoxy]ethoxy]ethyl-N,N,N-trimethylammonium chloride] | 1.25 µg/mL |  |  |  |
| CCCCCCCCCCCCCCCCCCOCC(COCCOCC[n+]1cccc(C(N)=O)c1)Oc1ccncn1.[Cl-] (stereo not shown) [Example 12, 3-Carbamoyl-1-[2-[2-[3-octadecyloxy-2-(pyrimidin-4-yloxy)propoxy]ethoxy]ethyl]pyridinium chloride] | 2.5 µg/mL |  |  |  |
| CCCCCCCCCCCCCCCCCCOCC(COCCOCCOCC[N+](C)(C)C)Oc1ncccn1.[Cl-] (stereo not shown) [Example 14, N-2-[2-[2-[3-Octadecyloxy-2-(pyrimidin-2-yloxy)propoxy]ethoxy]ethoxy]ethyl-N,N,N-trimethylammonium chloride] | 2.5 µg/mL |  |  |  |
